The results in this text go back to PubChem BioAssay (NCI).

The subject of the assay is MDA-MB-468 breast. The assay can be described thus: NCI tumour cell line growth inhibition, 48 h.

“And” between values parts separate entries of the source, which are not always exact repeats. Identical values can stand only once.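 These data come from cells grown in 96-well plates and exposed to compound for 48 hours at five concentrations. Here, GI50 denotes the concentration required for 50% inhibition of growth. At the TGI there is no net growth.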

With `COc1ccccc1Nc1ncc(-c2ccccc2)o1`, the GI50 was 3020 nM and the TGI was more than 25 µM.

On to `COc1ccc(-c2cc(/C=C/C(=O)c3ccc(OC)c(OC)c3)[nH]n2)cc1`, for which the GI50 is 1220 nM and the TGI was determined as 2.94 µM.

Turning to `O=[N+]([O-])c1ccc(CI)cc1`, the GI50 was 1710 nM and the TGI amounted to 4.09 µM.

On to `Nc1c(C(=O)c2ccccc2)cnn1-c1ccc(F)cc1`, for which the GI50 is more than 25000 nM and the TGI was more than 25 µM.

For the compound `O=C(NNc1ccccc1)C(=O)NNc1ccccc1`, the GI50 is more than 100000 nM and the TGI is more than 100 µM.

`COc1cc(/C=C/C(=O)c2cccc(-n3cc(-c4ccc(Cl)cc4)[nH]c3=O)c2)ccc1O`: the GI50 was 3120 nM and the TGI was 19.2 µM.

Regarding `Cn1c(Nc2ccc(C(F)(F)F)cc2)nc2cc(Oc3ccnc(-c4ncc(C(F)(F)F)[nH]4)c3)ccc21`, the GI50 was 127 nM and the TGI stood at 11.4 µM.

Consider `Cn1cc(-c2csc(-c3c[nH]c4ccc(Br)cc34)n2)c2cnccc21`, for which the GI50 was 1680 nM and the TGI was determined as 3.56 µM.

With `Cc1ccc2c(C3C(C#N)=C(N)Oc4cc5ccccc5cc43)cc(=O)oc2c1` (stereo not drawn), the GI50 is 925 nM and the TGI was found to be 67.1 µM.

`O=[P@@]1(c2ccccc2)O[C@H](COCc2ccccc2)[C@@H](OCc2ccccc2)[C@H](OCc2ccccc2)[C@H]1NCc1ccccc1`: the GI50 is 3060 nM and the TGI was 12.6 µM.

`CCN(Cc1ccc(F)cc1)c1ccc(CO)c(Br)c1`: the GI50 is 22.4 nM and the TGI came to 0.0608 µM.

In the case of `COc1ccc(-c2nnc(N3CCN(C(=O)CN4CCN(c5ccccc5)CC4)CC3)nc2-c2ccc(OC)cc2)cc1`, the GI50 is 8310 nM and the TGI was more than 100 µM.

As to `COc1cccc2c1C(=O)c1c(O)c3c(c(O)c1C2=O)C[C@@](O)(/C(C)=N/NC(=O)c1ccc(Cl)cc1)C[C@@H]3OC1CC(N)C(O)C(C)O1` (stereo partly drawn), the GI50 is 174 nM and the TGI was determined as 0.495 µM.

As to `Cc1nc2cc(Nc3nc(Nc4ccc(F)cc4)nc(-c4cccs4)n3)ccc2n1Cc1ccccc1`, the GI50 was 3620 nM and the TGI worked out at 35.4 µM.

For `CN(C)CCC(=O)C(=Cc1ccc(O)cc1)C(=O)CCN(C)C`, the GI50 was 26800 nM and the TGI was 75.2 µM.

Turning to `O=C1c2cc3c(cc2-c2c1c1cc(Cl)c(Cl)cc1c(=O)n2C[C@H](O)CO)OCO3`, the GI50 is less than 10 nM and the TGI came to 0.0305 µM.

As to `C[C@H](Nc1cc(Cl)nc2c1cnn2[C@@H]1O[C@H](COP(=O)(O)CP(=O)(O)O)[C@@H](O)[C@H]1O)c1ccccc1F`, the GI50 is more than 100000 nM and the TGI was more than 100 µM.

Consider `CN(C)c1ccc(N=Nc2ccccn2)c(O)c1`, for which the GI50 is 204 nM and the TGI was determined as 0.912 µM.

As to `CN1CC[C@@H](c2c(O)cc(O)c3c(=O)cc(-c4ccc(C(F)(F)F)cc4Cl)oc23)[C@@H]1CO`, the GI50 is 12200 nM and the TGI amounted to 29.6 µM.

Regarding `O=[N+]([O-])c1cccc2ccc(N/N=C/c3ccccc3O)nc12`, the GI50 is 676 nM and the TGI was more than 100 µM.

As for `C#Cc1nc(Nc2cc(C)[nH]n2)c2ccccc2n1`, the GI50 was 184 nM and the TGI worked out at 0.45 µM.

With `CC(C)OC(=O)[C@H](C)NP(=O)(OC[C@H]1O[C@@H](n2ccc(=O)[nH]c2=O)[C@](C)(F)[C@@H]1O)Oc1ccccc1` (stereo partly drawn), the GI50 was more than 100000 nM and the TGI is more than 100 µM.

Regarding `CCc1ccc(/C=C/c2ccc(O)c3ncccc23)[n+](C)c1`, the GI50 was 539 nM and the TGI was more than 36.5 µM.

`COc1cc(C2CC(c3cccc(Nc4ccncc4)c3)=NN2c2ccc(Cl)cc2)cc(OC)c1OC` (stereo not drawn): the GI50 is 1630 nM and the TGI was 3.45 µM.

Turning to `Cc1ccc(Nc2oc(-c3ccccc3)nc2[P+](c2ccccc2)(c2ccccc2)c2ccccc2)cc1`, the GI50 is 266 nM and the TGI was found to be 0.895 µM.

Consider `COc1ccc(-c2nsc3c2NC(=O)CC3c2cccc(OC)c2)cc1` (stereo not drawn), for which the GI50 was 395 nM and the TGI came out at 3.97 µM.

Regarding `O=C1CCC/C=C\C[C@H]2C=CC(=O)/C2=C/C[C@H](C/C=C\CC(F)(F)F)O1`, the GI50 is 521 nM and the TGI was 2.51 µM.

Consider `Clc1nc(Cl)nc(Nc2cccc3ccccc23)n1`, for which the GI50 is 52100 nM and the TGI is more than 100 µM.

For the compound `COc1cc(/C=C\c2cc(OC)c(OC)c(OC)c2)cc(N/C=C\C(=O)c2cc(OC)c(OC)c(OC)c2)c1OC`, the GI50 was 1880 nM and the TGI was 6.34 µM.

`C=COC(=O)N[C@H]1CCc2cc(OC)c(OC)c(OC)c2-c2ccc(SC)c(=O)cc21`: the GI50 is less than 10 nM and the TGI is more than 100 µM.

Take `CCOC(=O)c1c(-c2ccc(OC)cc2)c(C#N)c2c(C#N)c(N)nn2c1N`: the GI50 is 2080 nM and the TGI stood at 6.86 µM.

For the compound `CC1CCN(C(=O)OCc2nc3nc(Cl)nc(N4CCOCC4)c3[nH]2)CC1`, the GI50 is 715 nM and the TGI was 2.37 µM.

With `CC1(C)N=C(N)N=C(N)N1c1ccc(CCCCc2ccc(Cl)c(S(=O)(=O)F)c2)c(Cl)c1`, the GI50 was 2510 nM and the TGI came to 16.4 µM.

`COC(=O)c1ccc2c(c1)/C(=C\c1cc(Br)c(O)c(Br)c1)C(=O)N2`: the GI50 is 6090 nM and the TGI was more than 22 µM.

For `CC(C(=O)O)c1cccc(Oc2ccccc2)c1` (stereo not drawn), the GI50 was more than 100000 nM and the TGI was more than 100 µM.

Consider `CN(C)C/C=C/C(=O)Nc1cc2c(Nc3ccc(F)c(Cl)c3)ncnc2cc1O[C@H]1CCOC1`, for which the GI50 is < 10 nM and 1.12 nM; the TGI is 0.01 µM and 0.0067 µM.

With `CSc1nc(NC2OC(COC(C)=O)C(OC(C)=O)C(OC(C)=O)C2OC(C)=O)c(N=CC=Nc2c(NC3OC(COC(C)=O)C(OC(C)=O)C(OC(C)=O)C3OC(C)=O)nc(SC)n(C)c2=O)c(=O)n1C` (stereo not drawn), the GI50 is 39400 nM and the TGI stood at 50 µM.

Turning to `NCCc1cc(O)c(O)cc1O`, the GI50 was 20700 nM and the TGI worked out at 97.8 µM.

`Cn1c(=O)c(Oc2ccc(F)cc2)cc2cnc(NC3CCOCC3)nc21`: the GI50 is more than 25000 nM and the TGI was more than 25 µM.

Take `Nc1ccn(C2OC(CO)C(O)C2O)c(=O)n1` (stereo not drawn): the GI50 is more than 61100 nM and the TGI is more than 100 µM.

`CN(C)C(=S)Sc1ccc([N+](=O)[O-])cc1[N+](=O)[O-]`: the GI50 was 2120 nM and the TGI worked out at 5.78 µM.

On to `BrCc1cccc(C[P+](c2ccccc2)(c2ccccc2)c2ccccc2)c1`, for which the GI50 is 2250 nM and the TGI stood at 8.36 µM.

With `COc1ccc(C(O)(CCC(C)C)C(CN2CCOCC2)c2ccc(Cl)cc2)cc1` (stereo not drawn), the GI50 was 7430 nM and the TGI turned out to be 23.4 µM.

As for `Nc1ncc(-c2ccc3ncnc(N4CCc5cc(F)c(Cl)cc54)c3c2)cc1CO`, the GI50 was 236 nM and the TGI worked out at 0.933 µM.

Consider `Cc1cc(N(CCCNc2ccnc3cc(Cl)ccc23)Cc2ccc3c(c2)OCO3)nc(N2CCOCC2)n1`, for which the GI50 is 202 nM and the TGI was 0.562 µM.

Regarding `O=C1c2cccc3cccc(c23)C(=O)N1CCCCCN1CCN(CCCCCOc2ccc(-c3nc4ccc(N5CCOCC5)cc4[nH]3)cc2)CC1`, the GI50 is 20300 nM and the TGI was 34.6 µM.

As for `O=S(=O)(Nc1ccc(Cl)cc1Cl)c1ccc(-c2cnc(C3CC3)o2)cc1`, the GI50 is 339 nM and the TGI is 2.9 µM.

As for `CS(=O)(=O)Nc1cc(-c2ccc3ncnc(Nc4c(Cl)ccc5c4OCO5)c3c2)cnc1Cl`, the GI50 was 128 nM and the TGI is 0.454 µM.

Regarding `CC(C)=CCc1cc(O)cc2c1OC(C=C(C)C)C1=C2C(=O)C2=C(C1=O)S(=O)(=O)CCN2` (stereo not drawn), the GI50 was 2680 nM and the TGI is 8.24 µM.
